Type in all cases: biochemical
In one experiment the target is EGFR (Homo sapiens, UniProt P00533). Kind of experiment: Kinase panel inhibition, EGFR (one of the methods of Example 76a, 76b, 76c). As for the experimental part: (§1) Btk kinase activity is determined using a time-resolved fluorescence resonance energy transfer (TR-FRET) methodology. Measurements are performed in a reaction volume of 50 μL using 96-well assay plates. Kinase enzyme, inhibitor, ATP (at the Km for the kinase), and 1 peptide substrate (Biotin-AVLESEEELYSSARQ-NH2) are incubated in a reaction buffer composed of 20 mM Tris, 50 mM NaCl, MgCl2 (5-25 mM depending on the kinase), MnCl2 (0-10 mM), 1 mM DTT, 0.1 mM EDTA, 0.01% bovine serum albumin, 0.005% Tween-20, and 10% DMSO at pH 7.4 for one hour. The reaction is quenched by the addition of 1.2 equivalents of EDTA (relative to divalent cation) in 25 μL of 1× Lance buffer (Perkin-Elmer). Streptavidin-APC (Perkin-Elmer) and Eu-labeled p-Tyr100 antibody (Perkin-Elmer) in 1× Lance buffer are added in a 25 μL volume to give final concentrations of 100 nM and 2.5 nM, respectively, and the mixture is allowed to incubate for one hour. The TR-FRET signal is measured on a multimode plate reader with an excitation wavelength (λEx) of 330 nm and detection wavelengths (λEm) of 615 and 665 nm. Activity is determined by the ratio of the fluorescence at 665 nm to that at 615 nm. For each compound, enzyme activity is measured at various concentrations of compound. Negative control reactions are performed in the absence of inhibitor in replicates of six, and two no-enzyme controls are used to determine baseline fluorescence levels. Inhibition constants, Ki(app), were obtained using the program BatchKi (Kuzmic et al. (2000), Anal. Biochem. 286:45-50). IC50s are obtained according to the equation: IC50=[…]+[E]total/2;
(§2) For all kinases, [ATP]=Km^ATP, [Btk]total=0.5 nM and [Lck]total=6 nM.
(§3) Kinase activity is measured in vitro using electrophoretic mobility shift assay. The kinase reactions are assembled in a total volume of 25 μL in 384 well plates. The reactions comprise: BTK enzyme (1 nM, N-terminal His6-tagged, recombinant, full-length, human BTK purified from baculovirus Sf21 insect cell system), inhibitor, ATP (16 μM, the apparent Km for the kinase), fluorescently labeled peptide substrate (1 μM, FAM-GEEPLYWSFPAKKK-NH2) in a reaction buffer composed of 100 mM HEPES, pH7.5, 5 mM MgCl2 1 mM DTT, 0.1% bovine serum albumin, 0.01% Triton X-100, and 1% DMSO. The reaction is incubated for one hour and is quenched by the addition of 45 μL of termination buffer (100 mM HEPES, pH7.5, 0.01% Triton X-100, 30 mM EDTA). The terminated reactions are analyzed using 12 channel LabChip® 3000 microfluidic detection instrument (Caliper Life Sciences). The enzymatic phosphorylation of the peptide results in a change in net charge, enabling electrophoretic separation of product from substrate peptide. As substrate and product peptides are separated, two peaks of fluorescence are observed. Change in the relative fluorescence intensity of the substrate and product peaks is the parameter measured, reflecting enzyme activity. In the presence of an inhibitor, the ratio between product and substrate is altered:the signal of the product decreases, while the signal of the substrate increases.
(§4) Activity in each sample is determined as the product to sum ratio (PSR):P/(S+P), where P is the peak height of the product peptide and S is the peak height of the substrate peptide. For each compound, enzyme activity is measured at various concentrations (12 concentrations of compound spaced by 3× dilution intervals). Negative control samples (0%-inhibition in the absence of inhibitor) and positive control samples (100%-inhibition, in the presence of 20 mM EDTA) are assembled in replicates of four and are used to calculate %-inhibition values for each inhibitor at each concentration. Percent inhibition (Pinh) is determined using following equation: […]

Another experiment concerns the target T1, BTK (Homo sapiens, UniProt Q06187).
T1 construct: purified from insect cells as a full-length construct containing a N-terminal 6×-His tag; His6 (N); host or cells: insect cells (baculovirus Sf21)
Kind of experiment: Btk in vitro inhibitory activity (kinase assay by one of Methods A, B or C). As for the experimental part: as §1, §2, §3, §4

The next experiment addresses LCK (Homo sapiens, UniProt P06239). Kind of experiment: Kinase panel inhibition, LCK (one of the methods of Example 76a, 76b, 76c). On the procedure:
as §1, §2, §3, §4

pIC50: −log10 of the molar value. Some results are limits rather than exact numbers.

T1 sequence (Q06187 whole entry): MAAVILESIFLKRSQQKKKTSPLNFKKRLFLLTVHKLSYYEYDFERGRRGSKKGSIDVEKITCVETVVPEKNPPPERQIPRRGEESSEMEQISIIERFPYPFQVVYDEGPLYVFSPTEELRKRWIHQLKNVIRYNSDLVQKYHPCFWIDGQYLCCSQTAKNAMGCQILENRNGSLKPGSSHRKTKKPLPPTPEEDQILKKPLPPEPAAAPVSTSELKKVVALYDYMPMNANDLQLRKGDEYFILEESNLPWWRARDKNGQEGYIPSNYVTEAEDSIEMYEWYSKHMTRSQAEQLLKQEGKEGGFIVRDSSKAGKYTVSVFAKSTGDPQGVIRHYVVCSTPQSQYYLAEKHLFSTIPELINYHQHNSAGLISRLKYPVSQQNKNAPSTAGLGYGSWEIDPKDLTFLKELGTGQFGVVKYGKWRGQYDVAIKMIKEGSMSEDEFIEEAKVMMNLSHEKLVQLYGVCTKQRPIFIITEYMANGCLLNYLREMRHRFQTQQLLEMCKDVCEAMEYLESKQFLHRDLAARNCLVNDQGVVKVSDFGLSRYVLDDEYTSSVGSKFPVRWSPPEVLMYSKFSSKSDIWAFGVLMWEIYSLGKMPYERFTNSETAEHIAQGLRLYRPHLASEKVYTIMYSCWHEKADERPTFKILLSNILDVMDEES
EGFR, sequence (P00533 25-1210, species assumed): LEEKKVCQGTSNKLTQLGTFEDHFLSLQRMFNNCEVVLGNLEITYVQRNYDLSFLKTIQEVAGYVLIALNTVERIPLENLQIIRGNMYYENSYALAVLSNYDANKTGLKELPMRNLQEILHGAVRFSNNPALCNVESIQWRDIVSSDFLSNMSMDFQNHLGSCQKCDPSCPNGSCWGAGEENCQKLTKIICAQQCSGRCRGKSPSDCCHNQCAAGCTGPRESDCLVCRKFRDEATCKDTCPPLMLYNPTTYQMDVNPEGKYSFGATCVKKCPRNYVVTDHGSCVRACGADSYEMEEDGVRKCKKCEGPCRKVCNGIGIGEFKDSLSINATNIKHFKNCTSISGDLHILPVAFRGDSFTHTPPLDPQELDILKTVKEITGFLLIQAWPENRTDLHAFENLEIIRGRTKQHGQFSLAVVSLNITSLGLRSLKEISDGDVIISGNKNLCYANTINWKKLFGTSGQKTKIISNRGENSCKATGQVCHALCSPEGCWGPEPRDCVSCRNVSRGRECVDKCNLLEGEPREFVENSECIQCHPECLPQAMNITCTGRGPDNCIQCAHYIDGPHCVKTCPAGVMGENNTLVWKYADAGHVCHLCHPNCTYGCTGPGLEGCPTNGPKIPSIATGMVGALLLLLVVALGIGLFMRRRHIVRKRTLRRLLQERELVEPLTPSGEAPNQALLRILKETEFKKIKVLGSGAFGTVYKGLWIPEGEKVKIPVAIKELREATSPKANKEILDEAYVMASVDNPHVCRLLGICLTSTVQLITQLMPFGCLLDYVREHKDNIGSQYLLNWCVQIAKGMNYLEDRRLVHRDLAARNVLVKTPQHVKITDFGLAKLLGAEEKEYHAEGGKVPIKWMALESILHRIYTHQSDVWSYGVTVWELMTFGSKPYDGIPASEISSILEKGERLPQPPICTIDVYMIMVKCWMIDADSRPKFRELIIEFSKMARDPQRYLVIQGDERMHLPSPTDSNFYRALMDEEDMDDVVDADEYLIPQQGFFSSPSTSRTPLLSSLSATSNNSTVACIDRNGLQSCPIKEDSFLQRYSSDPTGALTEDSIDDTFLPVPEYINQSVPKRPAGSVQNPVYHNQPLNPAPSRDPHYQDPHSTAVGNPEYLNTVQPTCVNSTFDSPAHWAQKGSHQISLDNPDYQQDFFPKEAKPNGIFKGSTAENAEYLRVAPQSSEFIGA
LCK, sequence (P06239 whole entry, species assumed): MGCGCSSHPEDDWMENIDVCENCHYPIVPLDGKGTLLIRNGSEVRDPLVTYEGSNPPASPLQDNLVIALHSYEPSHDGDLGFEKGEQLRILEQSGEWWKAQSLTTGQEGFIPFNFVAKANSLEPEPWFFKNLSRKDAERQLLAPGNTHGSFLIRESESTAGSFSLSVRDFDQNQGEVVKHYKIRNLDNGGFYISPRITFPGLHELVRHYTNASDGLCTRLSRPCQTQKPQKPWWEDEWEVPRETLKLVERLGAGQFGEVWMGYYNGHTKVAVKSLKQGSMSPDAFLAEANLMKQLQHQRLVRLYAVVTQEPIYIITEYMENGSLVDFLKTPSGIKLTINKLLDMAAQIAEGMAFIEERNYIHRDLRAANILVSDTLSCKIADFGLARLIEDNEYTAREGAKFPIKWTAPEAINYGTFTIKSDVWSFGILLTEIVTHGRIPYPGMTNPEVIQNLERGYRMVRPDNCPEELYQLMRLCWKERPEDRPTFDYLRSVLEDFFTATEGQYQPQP

By pIC50 is commonly meant −log10 of the IC50, conventionally taken in molar units. Low readings indicate a high IC50, high ones a low IC50. With `COCCOc1cc(N(C)C(=O)/C=C/CN(C)C)cc(-n2c(=O)n(-c3ccc(C)c(OC)c3)c3c(N)ncnc32)c1` [Compound 147, (E)-N-(3-(6-amino-7-(3-methoxy-4-methylphenyl)-8-oxo-7H-purin-9(8H)-yl)-5-(2-methoxyethoxy)phenyl)-4-(dimethylamino)-N-methylbut-2-enamide], the pIC50 was under 5.00 against EGFR, over 7.00 against BTK and under 5.00 on LCK.

`C=CC(=O)N(C)c1ccc(-n2c(=O)n(-c3ccc(Cl)cc3)c3c(N)ncnc32)cc1` [Compound 51, N-(4-(6-amino-7-(4-chlorophenyl)-8-oxo-7H-purin-9(8H)-yl)phenyl)-N-methylacrylamide]: the pIC50 against EGFR is 6.00 to 7.00; at BTK, over 7.00; at LCK, 5.00 to 6.00.

With `Cc1cccc(COc2ccc(-n3c(=O)n(-c4cccc(N(C)C(=O)/C=C/CN(C)C5CC5)c4)c4ncnc(N)c43)cc2)c1` [Compound 239, (E)-N-(3-(6-amino-7-(4-(3-methylbenzyloxy)phenyl)-8-oxo-7H-purin-9(8H)-yl)phenyl)-4-(cyclopropyl(methyl)amino)-N-methylbut-2-enamide], the pIC50 on EGFR is 5.00 to 6.00; on BTK, over 7.00; on LCK, under 5.00.

Turning to `CN(C/C=C/C(=O)N1CCOc2ccc(-n3c(=O)n(-c4ccc(Oc5cccc(F)c5)cc4)c4c(N)ncnc43)cc21)C1CC1` [Compound 306, (E)-6-amino-9-(4-(4-(cyclopropyl(methyl)amino)but-2-enoyl)-3,4-dihydro-2H-benzo[b][1,4]oxazin-6-yl)-7-(4-(3-fluorophenoxy)phenyl)-7H-purin-8(9H)-one], the pIC50 against EGFR was 6.00 to 7.00; against BTK, over 7.00; against LCK, 5.00 to 6.00.

For the compound `CN(C/C=C/C(=O)Nc1cccc(-n2c(=O)n(-c3ccc(Oc4ccccc4)cc3)c3c(N)ncnc32)c1)[C@H]1CCOC1` [Compound 317, (S,E)-N-(3-(6-amino-8-oxo-7-(4-phenoxyphenyl)-7H-purin-9(8H)-yl)phenyl)-4-(methyl(tetrahydrofuran-3-yl)amino)but-2-enamide], the pIC50 is 6.00 to 7.00 against EGFR, over 7.00 on BTK and 6.00 to 7.00 at LCK.

With `CN(C/C=C/C(=O)N1CCOc2ccc(-n3c(=O)n(-c4ccc(Oc5ccccc5)cc4)c4c(N)ncnc43)cc21)C1CC1` [Compound 161, (E)-6-amino-9-(4-(4-(cyclopropyl(methyl)amino)but-2-enoyl)-3,4-dihydro-2H-benzo[b][1,4]oxazin-6-yl)-7-(4-phenoxyphenyl)-7H-purin-8(9H)-one], the pIC50 was 6.00 to 7.00 against EGFR, over 7.00 against BTK and 5.00 to 6.00 on LCK.

As to `COc1cc(-n2c(=O)n(-c3cccc(N(C)C(=O)/C=C/CN(C)C)c3)c3ncnc(N)c32)ccc1C` [Compound 30, (E)-N-(3-(6-amino-7-(3-methoxy-4-methylphenyl)-8-oxo-7H-purin-9(8H)-yl)phenyl)-4-(dimethylamino)-N-methylbut-2-enamide], the pIC50 on EGFR was under 5.00; against BTK, over 7.00; on LCK it was under 5.00.

As to `CN(C)C/C=C/C(=O)N(C)c1cccc(-n2c(=O)n(-c3ccc(Oc4ccccc4)cc3)c3c(N)ncnc32)c1` [Compound 33, (E)-N-(3-(6-amino-8-oxo-7-(4-phenoxyphenyl)-7H-purin-9(8H)-yl)phenyl)-4-(dimethylamino)-N-methylbut-2-enamide], the pIC50 against EGFR was 6.00 to 7.00; at BTK it was over 7.00; at LCK, 5.00 to 6.00.

For the compound `COc1cc(-n2c(=O)n(-c3ccc(N(C)C(=O)/C=C/CN(C)C)cc3)c3ncnc(N)c32)ccc1C` [Compound 54, (E)-N-(4-(6-amino-7-(3-methoxy-4-methylphenyl)-8-oxo-7H-purin-9(8H)-yl)phenyl)-4-(dimethylamino)-N-methylbut-2-enamide], the results for the pIC50 at EGFR, against BTK and against LCK were 5.00 to 6.00, over 7.00 and 5.00 to 6.00, respectively.

Consider `CN(C(=O)/C=C/CN(C)C1CC1)c1cccc(-n2c(=O)n(-c3ccc(OCc4cccc(F)c4)cc3)c3c(N)ncnc32)c1` [Compound 244, (E)-N-(3-(6-amino-7-(4-(3-fluorobenzyloxy)phenyl)-8-oxo-7H-purin-9(8H)-yl)phenyl)-4-(cyclopropyl(methyl)amino)-N-methylbut-2-enamide], for which the pIC50 against EGFR was 5.00 to 6.00; against BTK, over 7.00; against LCK it was under 5.00.

`CN(C(=O)/C=C/CN(C)[C@H]1CCOC1)c1cccc(-n2c(=O)n(-c3ccc(Oc4cccc(F)c4)cc3)c3c(N)ncnc32)c1` [Compound 309, (S,E)-N-(3-(6-amino-7-(4-(3-fluorophenoxy)phenyl)-8-oxo-7H-purin-9(8H)-yl)phenyl)-N-methyl-4-(methyl(tetrahydrofuran-3-yl)amino)but-2-enamide]: the figures for the pIC50 on EGFR, against BTK and against LCK were 5.00 to 6.00, over 7.00 and 5.00 to 6.00, respectively.

Take `CN(C(=O)/C=C/CN(C)C1CCC1)c1ccc(-n2c(=O)n(-c3ccc(Cl)cc3)c3c(N)ncnc32)cc1` [Compound 50, (E)-N-(4-(6-amino-7-(4-chlorophenyl)-8-oxo-7H-purin-9(8H)-yl)phenyl)-4-(cyclobutyl(methyl)amino)-N-methylbut-2-enamide]: the figures for the pIC50 at EGFR, against BTK and against LCK were under 5.00, 6.00 to 7.00 and 5.00 to 6.00, respectively.

Regarding `CN(C)C/C=C/C(=O)N1CC[C@@H](n2c(=O)n(-c3ccc(Cl)cc3)c3c(N)ncnc32)C1` [Compound 67, (R,E)-6-amino-7-(4-chlorophenyl)-9-(1-(4-(dimethylamino)but-2-enoyl)pyrrolidin-3-yl)-7H-purin-8(9H)-one], the pIC50 against EGFR was under 5.00; at BTK, 6.00 to 7.00; on LCK, 5.00 to 6.00.

`COc1cc(-n2c(=O)n(-c3cccc(N(C)C(=O)/C=C/CN(C)C4CC4)c3)c3ncnc(N)c32)ccc1OCc1ccccc1` [Compound 295, (E)-N-(3-(6-amino-7-(4-(benzyloxy)-3-methoxyphenyl)-8-oxo-7H-purin-9(8H)-yl)phenyl)-4-(cyclopropyl(methyl)amino)-N-methylbut-2-enamide]: the pIC50 was under 5.00 against EGFR, over 7.00 at BTK and under 5.00 at LCK.

`COc1cc(-n2c(=O)n(-c3cccc(N(C)C(=O)/C=C/CN(C)C4CC4)c3)c3ncnc(N)c32)ccc1Oc1ccccc1` [Compound 285, (E)-N-(3-(6-amino-7-(3-methoxy-4-phenoxyphenyl)-8-oxo-7H-purin-9(8H)-yl)phenyl)-4-(cyclopropyl(methyl)amino)-N-methylbut-2-enamide]: the pIC50 at EGFR is 5.00 to 6.00; on BTK it was over 7.00; against LCK, 5.00 to 6.00.

With `COCCOc1ccc(-n2c(=O)n(-c3ccc(C)c(OC)c3)c3c(N)ncnc32)cc1N(C)C(=O)/C=C/CN(C)C` [Compound 104, (E)-N-(5-(6-amino-7-(3-methoxy-4-methylphenyl)-8-oxo-7H-purin-9(8H)-yl)-2-(2-methoxyethoxy)phenyl)-4-(dimethylamino)-N-methylbut-2-enamide], the pIC50 at EGFR is under 5.00; on BTK, 6.00 to 7.00; against LCK, under 5.00.

The values above are taken from patent US9469642B2, “Purinone compounds as kinase inhibitors” (Pharmacyclics LLC, priority 2012, dated 2016).
